Data on ten cell lines can be found in the supplement of paper PMC10307832.

What all share (assay): relative viability (nuclei count vs DMSO), 5 days (fraction); higher = more cells survive
Compound in the experiment “Linifanib + Pemetrexed”: Cc1ccc(F)c(NC(=O)Nc2ccc(-c3cccc4[nH]nc(N)c34)cc2)c1 [Linifanib] + Nc1nc2[nH]cc(CCc3ccc(C(=O)N[C@@H](CCC(=O)O)C(=O)O)cc3)c2c(=O)[nH]1 [Pemetrexed] (partner 0.2 µM)
Summed up: (§1)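 Relative viability equals treated-well nuclei counts divided by vehicle-well nuclei counts. Counts came from 4× images of lung cancer cell lines grown in 1536-well plates for 5 days after pin-tool dosing on the day after seeding. Dosing used one drug alone or a fixed anchor-drug dose plus five library-drug doses (not always all listed) in √10 steps, and values are medians of duplicate plates.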

Compound in the experiment “Linifanib + Tozasertib”: Cc1ccc(F)c(NC(=O)Nc2ccc(-c3cccc4[nH]nc(N)c34)cc2)c1 [Linifanib] + Cc1cc(Nc2cc(N3CCN(C)CC3)nc(Sc3ccc(NC(=O)C4CC4)cc3)n2)n[nH]1 [Tozasertib] (partner 0.1 µM)
Summed up:
as §1

Compound in the experiment “Linifanib + Crizotinib”: Cc1ccc(F)c(NC(=O)Nc2ccc(-c3cccc4[nH]nc(N)c34)cc2)c1 [Linifanib] + C[C@@H](Oc1cc(-c2cnn(C3CCNCC3)c2)cnc1N)c1c(Cl)ccc(F)c1Cl [Crizotinib] (partner 1 µM)
Summed up: as §1

Compound in the experiment “Linifanib + Olaparib”: Cc1ccc(F)c(NC(=O)Nc2ccc(-c3cccc4[nH]nc(N)c34)cc2)c1 [Linifanib] + O=C(c1cc(Cc2n[nH]c(=O)c3ccccc23)ccc1F)N1CCN(C(=O)C2CC2)CC1 [Olaparib] (partner 8 µM)
Summed up:
as §1

Compound in the experiment “Linifanib + Navitoclax”: Cc1ccc(F)c(NC(=O)Nc2ccc(-c3cccc4[nH]nc(N)c34)cc2)c1 [Linifanib] + CC1(C)CCC(c2ccc(Cl)cc2)=C(CN2CCN(c3ccc(C(=O)NS(=O)(=O)c4ccc(N[C@H](CCN5CCOCC5)CSc5ccccc5)c(S(=O)(=O)C(F)(F)F)c4)cc3)CC2)C1 [Navitoclax] (partner 0.5 µM)
Summed up: as §1

Compound in the experiment “Linifanib + AZD7762”: Cc1ccc(F)c(NC(=O)Nc2ccc(-c3cccc4[nH]nc(N)c34)cc2)c1 [Linifanib] + NC(=O)Nc1cc(-c2cccc(F)c2)sc1C(=O)N[C@H]1CCCNC1 [AZD7762] (partner 0.2 µM)
Summed up:
as §1

UMC-11: the relative viability in the experiment with Linifanib + Pemetrexed (first compound 0.03162 µM) amounted to 0.763; in the experiment with Linifanib + Pemetrexed (first compound 0.1 µM), 0.772; in the experiment with Linifanib + Pemetrexed (first compound 0.3162 µM) it was 0.787; with Linifanib + Tozasertib (first compound 0.03162 µM), 0.214; in the experiment with Linifanib + Tozasertib (first compound 0.1 µM) it was 0.201; in the experiment with Linifanib + Tozasertib (first compound 0.3162 µM), 0.222. Also, the relative viability with Linifanib + Crizotinib (first compound 0.03162 µM) was 0.657; in the experiment with Linifanib + Crizotinib (first compound 0.1 µM), 0.604; with Linifanib + Crizotinib (first compound 0.3162 µM) it was 0.598; in the experiment with Linifanib + Olaparib (first compound 0.03162 µM), 0.388; with Linifanib + Olaparib (first compound 0.1 µM) it was 0.485; with Linifanib + Olaparib (first compound 0.3162 µM), 0.374. Moreover, the relative viability was determined as 0.304 with Linifanib + Navitoclax (first compound 0.03162 µM), 0.41 with Linifanib + Navitoclax (first compound 0.1 µM) and 0.366 with Linifanib + Navitoclax (first compound 0.3162 µM).

Consider NCI-H727, for which the relative viability stood at 0.535 in the experiment with Linifanib + Tozasertib (first compound 0.03162 µM); 0.659 in the experiment with Linifanib + Tozasertib (first compound 0.1 µM); 0.529 with Linifanib + Tozasertib (first compound 0.3162 µM); 1.01 with Linifanib + Crizotinib (first compound 0.03162 µM); 1.01 with Linifanib + Crizotinib (first compound 0.1 µM); 0.725 in the experiment with Linifanib + Crizotinib (first compound 0.3162 µM). In addition, the relative viability stood at 0.938 with Linifanib + Olaparib (first compound 0.03162 µM); 0.744 in the experiment with Linifanib + Olaparib (first compound 0.1 µM); 0.784 in the experiment with Linifanib + Olaparib (first compound 0.3162 µM); 0.602 with Linifanib + AZD7762 (first compound 0.03162 µM); 0.62 with Linifanib + AZD7762 (first compound 0.1 µM); 0.358 with Linifanib + AZD7762 (first compound 0.3162 µM). Also, the relative viability came out at 0.407 with Linifanib + Navitoclax (first compound 0.03162 µM), 0.402 with Linifanib + Navitoclax (first compound 0.1 µM) and 0.415 with Linifanib + Navitoclax (first compound 0.3162 µM).

For NCI-H2009, the relative viability with Linifanib + Pemetrexed (first compound 0.03162 µM) is 1.08; with Linifanib + Pemetrexed (first compound 0.1 µM), 0.989; in the experiment with Linifanib + Pemetrexed (first compound 0.3162 µM), 0.917; with Linifanib + Tozasertib (first compound 0.03162 µM) it was 0.718; with Linifanib + Tozasertib (first compound 0.1 µM), 0.834; with Linifanib + Tozasertib (first compound 0.3162 µM), 0.71. Moreover, the relative viability with Linifanib + Crizotinib (first compound 0.03162 µM) came to 1.07; with Linifanib + Crizotinib (first compound 0.1 µM) it was 1.08; in the experiment with Linifanib + Crizotinib (first compound 0.3162 µM), 0.526; with Linifanib + Olaparib (first compound 0.03162 µM), 0.675; in the experiment with Linifanib + Olaparib (first compound 0.1 µM), 0.705; with Linifanib + Olaparib (first compound 0.3162 µM) it was 0.671. In addition, the relative viability with Linifanib + Navitoclax (first compound 0.03162 µM) was 1.13; in the experiment with Linifanib + Navitoclax (first compound 0.1 µM), 1.14; with Linifanib + Navitoclax (first compound 0.3162 µM), 1.13.

Regarding COR-L 105, the relative viability in the experiment with Linifanib + Pemetrexed (first compound 0.03162 µM) came out at 1.12; with Linifanib + Pemetrexed (first compound 0.1 µM), 1.02; in the experiment with Linifanib + Pemetrexed (first compound 0.3162 µM), 1.07; with Linifanib + Tozasertib (first compound 0.03162 µM), 0.334; with Linifanib + Tozasertib (first compound 0.1 µM), 0.321; in the experiment with Linifanib + Tozasertib (first compound 0.3162 µM), 0.336. Moreover, the relative viability in the experiment with Linifanib + Crizotinib (first compound 0.03162 µM) was found to be 0.796; with Linifanib + Crizotinib (first compound 0.1 µM) it was 0.941; in the experiment with Linifanib + Crizotinib (first compound 0.3162 µM), 0.797; with Linifanib + Olaparib (first compound 0.03162 µM), 0.66; in the experiment with Linifanib + Olaparib (first compound 0.1 µM) it was 0.584; with Linifanib + Olaparib (first compound 0.3162 µM), 0.754. Moreover, the relative viability was determined as 0.808 with Linifanib + Navitoclax (first compound 0.03162 µM), 0.938 with Linifanib + Navitoclax (first compound 0.1 µM) and 0.796 in the experiment with Linifanib + Navitoclax (first compound 0.3162 µM).

Turning to NCI-H650, the relative viability with Linifanib + Pemetrexed (first compound 0.03162 µM) worked out at 0.899; in the experiment with Linifanib + Pemetrexed (first compound 0.1 µM) it was 1.15; with Linifanib + Pemetrexed (first compound 0.3162 µM), 0.899; with Linifanib + Tozasertib (first compound 0.03162 µM) it was 0.704; with Linifanib + Tozasertib (first compound 0.1 µM), 0.733; with Linifanib + Tozasertib (first compound 0.3162 µM), 0.73. Moreover, the relative viability is 0.742 with Linifanib + Crizotinib (first compound 0.03162 µM); 0.665 in the experiment with Linifanib + Crizotinib (first compound 0.1 µM); 0.73 with Linifanib + Crizotinib (first compound 0.3162 µM); 0.348 in the experiment with Linifanib + Olaparib (first compound 0.03162 µM); 0.397 with Linifanib + Olaparib (first compound 0.1 µM); 0.361 in the experiment with Linifanib + Olaparib (first compound 0.3162 µM). The relative viability was determined as 0.947 in the experiment with Linifanib + AZD7762 (first compound 0.03162 µM), 0.99 with Linifanib + AZD7762 (first compound 0.1 µM) and 0.675 with Linifanib + AZD7762 (first compound 0.3162 µM).

As to COR-L23, the relative viability with Linifanib + Pemetrexed (first compound 0.03162 µM) came out at 0.197; in the experiment with Linifanib + Pemetrexed (first compound 0.1 µM) it was 0.19; in the experiment with Linifanib + Pemetrexed (first compound 0.3162 µM) it was 0.195; with Linifanib + Tozasertib (first compound 0.03162 µM), 0.181; with Linifanib + Tozasertib (first compound 0.1 µM), 0.228; with Linifanib + Tozasertib (first compound 0.3162 µM), 0.141. The relative viability in the experiment with Linifanib + Crizotinib (first compound 0.03162 µM) amounted to 0.716; in the experiment with Linifanib + Crizotinib (first compound 0.1 µM), 0.657; with Linifanib + Crizotinib (first compound 0.3162 µM) it was 0.531; with Linifanib + Olaparib (first compound 0.03162 µM), 0.337; with Linifanib + Olaparib (first compound 0.1 µM) it was 0.384; in the experiment with Linifanib + Olaparib (first compound 0.3162 µM), 0.302. For the same cell line, the relative viability stood at 1.05 in the experiment with Linifanib + Navitoclax (first compound 0.03162 µM), 1.04 with Linifanib + Navitoclax (first compound 0.1 µM) and 0.857 in the experiment with Linifanib + Navitoclax (first compound 0.3162 µM).

NCI-H1650: the relative viability in the experiment with Linifanib + Pemetrexed (first compound 0.03162 µM) is 0.364; in the experiment with Linifanib + Pemetrexed (first compound 0.1 µM), 0.346; with Linifanib + Pemetrexed (first compound 0.3162 µM), 0.348; in the experiment with Linifanib + Tozasertib (first compound 0.03162 µM) it was 0.389; with Linifanib + Tozasertib (first compound 0.1 µM), 0.475; with Linifanib + Tozasertib (first compound 0.3162 µM), 0.377. The relative viability was 0.955 with Linifanib + Crizotinib (first compound 0.03162 µM); 1.17 in the experiment with Linifanib + Crizotinib (first compound 0.1 µM); 0.864 with Linifanib + Crizotinib (first compound 0.3162 µM); 0.78 in the experiment with Linifanib + Olaparib (first compound 0.03162 µM); 0.971 in the experiment with Linifanib + Olaparib (first compound 0.1 µM); 0.753 with Linifanib + Olaparib (first compound 0.3162 µM). Moreover, the relative viability was 0.998 in the experiment with Linifanib + Navitoclax (first compound 0.03162 µM), 1.35 with Linifanib + Navitoclax (first compound 0.1 µM) and 1.21 in the experiment with Linifanib + Navitoclax (first compound 0.3162 µM).

With SK-LU-1, the relative viability with Linifanib + Pemetrexed (first compound 0.03162 µM) is 0.794; with Linifanib + Pemetrexed (first compound 0.1 µM) it was 1; with Linifanib + Pemetrexed (first compound 0.3162 µM) it was 0.966; with Linifanib + Tozasertib (first compound 0.03162 µM) it was 0.317; with Linifanib + Tozasertib (first compound 0.1 µM) it was 0.331; with Linifanib + Tozasertib (first compound 0.3162 µM) it was 0.323. In addition, the relative viability came to 1.03 in the experiment with Linifanib + Crizotinib (first compound 0.03162 µM); 0.958 with Linifanib + Crizotinib (first compound 0.1 µM); 0.864 with Linifanib + Crizotinib (first compound 0.3162 µM); 0.467 with Linifanib + Olaparib (first compound 0.03162 µM); 0.558 in the experiment with Linifanib + Olaparib (first compound 0.1 µM); 0.456 with Linifanib + Olaparib (first compound 0.3162 µM). Moreover, the results for the relative viability with Linifanib + Navitoclax (first compound 0.03162 µM), with Linifanib + Navitoclax (first compound 0.1 µM) and with Linifanib + Navitoclax (first compound 0.3162 µM) were 0.783, 0.893 and 0.791, respectively.

Turning to NCI-H2023, the relative viability in the experiment with Linifanib + Pemetrexed (first compound 0.03162 µM) is 0.259; with Linifanib + Pemetrexed (first compound 0.1 µM), 0.275; in the experiment with Linifanib + Pemetrexed (first compound 0.3162 µM), 0.232; with Linifanib + Tozasertib (first compound 0.03162 µM) it was 0.322; with Linifanib + Tozasertib (first compound 0.1 µM), 0.398; with Linifanib + Tozasertib (first compound 0.3162 µM), 0.293. Further, the relative viability with Linifanib + Crizotinib (first compound 0.03162 µM) worked out at 0.679; with Linifanib + Crizotinib (first compound 0.1 µM), 0.774; with Linifanib + Crizotinib (first compound 0.3162 µM) it was 0.544; in the experiment with Linifanib + Olaparib (first compound 0.03162 µM) it was 0.518; with Linifanib + Olaparib (first compound 0.1 µM), 0.615; with Linifanib + Olaparib (first compound 0.3162 µM) it was 0.46. The relative viability was 0.929 with Linifanib + Navitoclax (first compound 0.03162 µM), 1.07 with Linifanib + Navitoclax (first compound 0.1 µM) and 0.981 with Linifanib + Navitoclax (first compound 0.3162 µM).

As for SW 900, the relative viability with Linifanib + Pemetrexed (first compound 0.03162 µM) worked out at 0.495; with Linifanib + Pemetrexed (first compound 0.1 µM), 0.496; in the experiment with Linifanib + Pemetrexed (first compound 0.3162 µM) it was 0.481; with Linifanib + Tozasertib (first compound 0.03162 µM) it was 0.392; in the experiment with Linifanib + Tozasertib (first compound 0.1 µM), 0.614; in the experiment with Linifanib + Tozasertib (first compound 0.3162 µM), 0.692. For the same cell line, the relative viability with Linifanib + Olaparib (first compound 0.03162 µM) amounted to 0.909; with Linifanib + Olaparib (first compound 0.1 µM), 1.04; with Linifanib + Olaparib (first compound 0.3162 µM) it was 0.75; in the experiment with Linifanib + AZD7762 (first compound 0.03162 µM), 0.523; with Linifanib + AZD7762 (first compound 0.1 µM), 0.656; in the experiment with Linifanib + AZD7762 (first compound 0.3162 µM) it was 0.533.
